Reference: patent US20240067693A1, “POLYPEPTIDES AND USES THEREOF” (MEDIMMUNE LIMITED, priority 2020, published 2024)
Numbered stars: 1 amine (or outer) side, 2 acyl side, 3 side chain; on linkers, the order of the positions; unused ones are H or OH. Bridge positions count the residues as written; N and C are the ends. Square brackets hold non-standard residues; d marks the D form. Side chains are listed from the residue outwards. Peptide text beside a SMILES is read from it. * marks the point of attachment. C18 diacid = O=C(O)CCCCCCCCCCCCCCCCC(=O)*; γGlu = O=C(O)[C@H](CCC(=O)[*:2])N[*:1]; Aib = CC(C)(N)C(=O)O

Tests used:
[1] = target: T1, human calcitonin receptor (hCTR) (Homo sapiens, UniProt P30988); assay: cAMP production in 1321N1 cells with stable recombinant expression of human calcitonin receptor (hCTR); format: cell-based; conditions: cAMP, 1321N1 cells, assay buffer with 0.1% BSA; read-out: EC50 (pM) hCTR
T1 construct: expressed in transfected cells
T1 sequence (P30988 25-474): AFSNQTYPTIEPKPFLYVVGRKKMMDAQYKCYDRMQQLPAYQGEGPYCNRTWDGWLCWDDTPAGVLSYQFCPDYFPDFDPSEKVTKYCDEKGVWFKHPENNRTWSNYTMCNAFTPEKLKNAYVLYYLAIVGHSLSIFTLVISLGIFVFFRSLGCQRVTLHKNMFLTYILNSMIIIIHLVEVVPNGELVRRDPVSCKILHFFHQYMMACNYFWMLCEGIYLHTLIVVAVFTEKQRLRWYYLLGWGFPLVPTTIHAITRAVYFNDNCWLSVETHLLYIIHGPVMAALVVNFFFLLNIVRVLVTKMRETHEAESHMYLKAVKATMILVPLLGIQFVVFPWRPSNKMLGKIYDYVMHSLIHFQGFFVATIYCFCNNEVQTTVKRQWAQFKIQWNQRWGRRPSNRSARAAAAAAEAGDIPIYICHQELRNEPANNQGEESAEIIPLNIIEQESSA
Procedure, shortened: (§1)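 Receptor-expressing cells (human receptors in 1321N1, rat receptors in HEK) incubated 30 min at room temperature with peptide in HBSS/HEPES pH 7.4, 0.1% BSA, 0.5 mM IBMX. cAMP read by HTRF; EC50 from 4-parameter fit as % of maximal amylin or calcitonin response.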

[2] = target: T2, human amylin receptor (calcitonin receptor co-expressed with receptor activity modifying protein, RAMP3) (hAMYR3) (Homo sapiens, UniProt O60896+P30988); assay: cAMP production in 1321N1 cells with stable recombinant expression of human amylin receptor (hAMYR3); format: cell-based; conditions: for Ratio (selectivity hAMYR vs hCTR, ratio of EC50 values at the two receptors): EC50 hCTR / EC50 hAMYR3; for EC50: cAMP, 1321N1 cells, assay buffer with 0.1% BSA, read-out: EC50 (pM) hAMYR3
T2 construct: expressed in transfected cells
T2 sequence (P30988 25-474): T1 sequence (P30988 25-474)
T2 sequence (O60896 24-148 partner): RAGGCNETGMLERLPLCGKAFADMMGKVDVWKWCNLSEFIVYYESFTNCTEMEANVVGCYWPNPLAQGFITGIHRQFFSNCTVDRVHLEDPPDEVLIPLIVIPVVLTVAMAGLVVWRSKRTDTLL
Procedure, shortened: as §1

| EC50 [1] | Ratio (selectivity hAMYR vs hCTR, ratio of EC50 values at the two receptors) [2] | EC50 [2] | Compound |
| --- | --- | --- | --- |
| 4800 pM | 7 | 659 pM | CC[C@H](C)[C@H](NC(=O)[C@@H]1CCCN1C(=O)CNC(=O)[C@H](Cc1ccccc1)NC(=O)[C@H](CC(N)=O)NC(=O)C(C)(C)NC(=O)[C@H](CO)NC(=O)[C@H](CO)NC(=O)[C@H](Cc1c[nH]cn1)NC(=O)[C@@H](NC(=O)[C@H](CC(C)C)NC(=O)[C@H](Cc1ccccc1)NC(=O)[C@H](CC(N)=O)NC(=O)[C@H](C)NC(=O)[C@H](CC(C)C)NC(=O)[C@H](CCCNC(=N)N)NC(=O)[C@H](CCC(N)=O)NC(=O)[C@@H](NC(=O)[C@H](C)NC(=O)[C@@H]1CSSC[C@H](NC(=O)[C@H](CCCCN)NC(=O)[C@@H](N)CCCCNC(=O)CC[C@H](NC(=O)CCCCCCCCCCCCCCCCC(=O)O)C(=O)O)C(=O)N[C@@H](CC(N)=O)C(=O)N[C@@H]([C@@H](C)O)C(=O)N[C@@H](C)C(=O)N[C@@H]([C@@H](C)O)C(=O)N1)[C@@H](C)O)C(C)C)C(=O)NC(C)(C)C(=O)N1CCC[C@H]1C(=O)N1CCC[C@H]1C(=O)N[C@H](C(=O)N[C@@H](CC(N)=O)C(=O)N[C@H](C(=O)NCC(=O)N[C@@H](CO)C(=O)N[C@@H](CC(N)=O)C(=O)N[C@H](C(=O)N[C@@H](Cc1ccc(O)cc1)C(N)=O)[C@@H](C)O)C(C)C)[C@@H](C)O [Peptide 79, K(γE-C18diacid)K[CNTATC]ATQRLANFLVHSS(Aib)NFGPI(Aib)PPTNVGSNTY-amide] (H-K([γGlu-C18 diacid])KCNTATCATQRLANFLVHSS[Aib]NFGPI[Aib]PPTNVGSNTY-NH2; disulfide 3-8) |
| 2760 pM | 7 | 404 pM | CC[C@H](C)[C@H](NC(=O)[C@@H]1CCCN1C(=O)CNC(=O)[C@H](Cc1ccccc1)NC(=O)[C@H](CC(N)=O)NC(=O)C(C)(C)NC(=O)[C@H](CO)NC(=O)[C@H](CO)NC(=O)[C@H](Cc1c[nH]cn1)NC(=O)[C@@H](NC(=O)[C@H](CC(C)C)NC(=O)[C@H](Cc1ccccc1)NC(=O)[C@H](CC(N)=O)NC(=O)[C@H](C)NC(=O)[C@H](CC(C)C)NC(=O)[C@H](CCCNC(=N)N)NC(=O)[C@H](CCC(N)=O)NC(=O)[C@@H](NC(=O)[C@H](C)NC(=O)[C@@H]1CSSC[C@H](NC(=O)[C@H](CCCCN)NC(=O)[C@@H](N)CCCCNC(=O)CC[C@H](NC(=O)CCCCCCCCCCCCCCCCC(=O)O)C(=O)O)C(=O)N[C@@H](CC(N)=O)C(=O)N[C@@H]([C@@H](C)O)C(=O)N[C@@H](C)C(=O)N[C@@H]([C@@H](C)O)C(=O)N1)[C@@H](C)O)C(C)C)C(=O)N[C@@H](CC(C)C)C(=O)N1CCC[C@H]1C(=O)N1CCC[C@H]1C(=O)N[C@H](C(=O)N[C@@H](CC(N)=O)C(=O)N[C@H](C(=O)NC(C)(C)C(=O)N[C@@H](CO)C(=O)N[C@@H](CC(N)=O)C(=O)N[C@H](C(=O)N[C@@H](Cc1ccc(O)cc1)C(N)=O)[C@@H](C)O)C(C)C)[C@@H](C)O [Peptide 81, K(γE-C18diacid)K[CNTATC]ATQRLANFLVHSS(Aib)NFGPILPPTNV(Aib)SNTY-amide] (H-K([γGlu-C18 diacid])KCNTATCATQRLANFLVHSS[Aib]NFGPILPPTNV[Aib]SNTY-NH2; disulfide 3-8; N-terminus assumed) |
| 4280 pM | 8 | 514 pM | CC[C@H](C)[C@H](NC(=O)[C@@H]1CCCN1C(=O)CNC(=O)[C@H](Cc1ccccc1)NC(=O)[C@H](CC(N)=O)NC(=O)C(C)(C)NC(=O)[C@H](CO)NC(=O)[C@H](CO)NC(=O)[C@H](Cc1c[nH]cn1)NC(=O)[C@@H](NC(=O)[C@H](CC(C)C)NC(=O)[C@H](Cc1ccccc1)NC(=O)[C@H](CC(N)=O)NC(=O)[C@H](C)NC(=O)[C@H](CC(C)C)NC(=O)[C@H](CCCNC(=N)N)NC(=O)[C@H](CCC(N)=O)NC(=O)[C@@H](NC(=O)[C@H](C)NC(=O)[C@@H]1CSSC[C@H](NC(=O)[C@H](CCCCN)NC(=O)[C@@H](N)CCCCNC(=O)CC[C@H](NC(=O)CCCCCCCCCCCCCCCCC(=O)O)C(=O)O)C(=O)N[C@@H](CC(N)=O)C(=O)N[C@@H]([C@@H](C)O)C(=O)N[C@@H](C)C(=O)N[C@@H]([C@@H](C)O)C(=O)N1)[C@@H](C)O)C(C)C)C(=O)N[C@@H](CC(C)C)C(=O)N1CCC[C@H]1C(=O)N1CCC[C@H]1C(=O)N[C@H](C(=O)N[C@@H](CC(N)=O)C(=O)N[C@H](C(=O)NCC(=O)N[C@@H](CO)C(=O)NC(C)(C)C(=O)N[C@H](C(=O)N[C@@H](Cc1ccc(O)cc1)C(N)=O)[C@@H](C)O)C(C)C)[C@@H](C)O [Peptide 82, K(γE-C18diacid)K[CNTATC]ATQRLANFLVHSS(Aib)NFGPILPPTNVGS(Aib)TY-amide] (H-K([γGlu-C18 diacid])KCNTATCATQRLANFLVHSS[Aib]NFGPILPPTNVGS[Aib]TY-NH2; disulfide 3-8) |
| 6340 pM | 11 | 599 pM | CC[C@H](C)[C@H](NC(=O)[C@@H]1CCCN1C(=O)CNC(=O)[C@H](Cc1ccccc1)NC(=O)[C@H](CC(N)=O)NC(=O)C(C)(C)NC(=O)[C@H](CO)NC(=O)[C@H](CO)NC(=O)[C@H](Cc1c[nH]cn1)NC(=O)[C@@H](NC(=O)[C@H](CC(C)C)NC(=O)[C@H](Cc1ccccc1)NC(=O)[C@H](CC(N)=O)NC(=O)[C@H](C)NC(=O)[C@H](CC(C)C)NC(=O)[C@H](CCCNC(=N)N)NC(=O)[C@H](CCC(N)=O)NC(=O)[C@@H](NC(=O)[C@H](C)NC(=O)[C@@H]1CSSC[C@H](NC(=O)[C@H](CCCCN)NC(=O)[C@@H](N)CCCCNC(=O)CC[C@H](NC(=O)CCCCCCCCCCCCCCCCC(=O)O)C(=O)O)C(=O)N[C@@H](CC(N)=O)C(=O)N[C@@H]([C@@H](C)O)C(=O)N[C@@H](C)C(=O)N[C@@H]([C@@H](C)O)C(=O)N1)[C@@H](C)O)C(C)C)C(=O)N[C@@H](CC(C)C)C(=O)N1CCC[C@H]1C(=O)N1CCC[C@H]1C(=O)N[C@H](C(=O)N[C@@H](CC(N)=O)C(=O)N[C@H](C(=O)NCC(=O)N[C@@H](CO)C(=O)N[C@@H](CC(N)=O)C(=O)NC(C)(C)C(=O)N[C@@H](Cc1ccc(O)cc1)C(N)=O)C(C)C)[C@@H](C)O [Peptide 83, K(γE-C18diacid)K[CNTATC]ATQRLANFLVHSS(Aib)NFGPILPPTNVGSN(Aib)Y-amide] (H-K([γGlu-C18 diacid])KCNTATCATQRLANFLVHSS[Aib]NFGPILPPTNVGSN[Aib]Y-NH2; disulfide 3-8; N-terminus assumed) |
| 401 pM | 3 | 118 pM | CC[C@H](C)[C@H](NC(=O)[C@@H]1CCCN1C(=O)CNC(=O)[C@H](Cc1ccccc1)NC(=O)[C@H](CC(N)=O)NC(=O)C(C)(C)NC(=O)[C@H](CO)NC(=O)[C@H](CO)NC(=O)[C@H](Cc1c[nH]cn1)NC(=O)[C@@H](NC(=O)[C@H](CC(C)C)NC(=O)[C@H](Cc1ccccc1)NC(=O)[C@H](CC(N)=O)NC(=O)[C@H](C)NC(=O)[C@H](CC(C)C)NC(=O)[C@H](CCCNC(=N)N)NC(=O)[C@H](CCC(N)=O)NC(=O)[C@@H](NC(=O)[C@H](C)NC(=O)[C@@H]1CSSC[C@H](NC(=O)[C@H](CCCCN)NC(=O)[C@@H](N)CCCCNC(=O)CC[C@H](NC(=O)CCCCCCCCCCCCCCCCC(=O)O)C(=O)O)C(=O)N[C@@H](CC(N)=O)C(=O)N[C@@H]([C@@H](C)O)C(=O)N[C@@H](C)C(=O)N[C@@H]([C@@H](C)O)C(=O)N1)[C@@H](C)O)C(C)C)C(=O)N[C@@H](CC(C)C)C(=O)N1CCC[C@H]1C(=O)N1CCC[C@H]1C(=O)N[C@H](C(=O)N[C@@H](CC(N)=O)C(=O)N[C@H](C(=O)NCC(=O)NC(C)(C)C(=O)N[C@@H](CC(N)=O)C(=O)N[C@H](C(=O)N[C@@H](Cc1ccc(O)cc1)C(N)=O)[C@@H](C)O)C(C)C)[C@@H](C)O [Peptide 84, K(γE-C18diacid)K[CNTATC]ATQRLANFLVHSS(Aib)NFGPILPPTNVG(Aib)NTY-amide] (H-K([γGlu-C18 diacid])KCNTATCATQRLANFLVHSS[Aib]NFGPILPPTNVG[Aib]NTY-NH2; disulfide 3-8; N-terminus assumed) |
